{"source": "paper PMC7646944", "about": "(2020)", "key": {"[1]": {"system": "SCA2.1–40 (DNA, aptamer) CTTACGACCTTAAGTGGGGTTCGGGTGGAGTTTATGGGGT", "test": "isothermal titration calorimetry"}, "[2]": {"system": "SCA2.1–34 (DNA, aptamer) ACCTTAAGTGGGGTTCGGGTGGAGTTTATGGGGT", "test": "isothermal titration calorimetry"}}, "data": [{"smiles": "CCCC(C(=O)c1ccc2c(c1)OCO2)N1CCCC1", "note": "(stereo not drawn)", "values": [{"measurement": "KD", "setting": "[1]", "result": "292 ± 14", "unit": "µM"}, {"measurement": "KD", "setting": "[2]", "result": "96 ± 4.0", "unit": "µM"}]}, {"smiles": "CCC[C@H](C(=O)c1ccc2c(c1)OCO2)N1CCCC1", "values": [{"measurement": "KD", "setting": "[1]", "result": "0.65 ± 0.03", "unit": "µM"}]}]}
